Results: patent publication EP2197879B1, “C7-SUBSTITUTED CAMPTOTHECIN ANALOGS” (priority 2007, dated 2009)
Where two headings read alike, the source gives them in different places.

Experiments:
[1] = test system: A2780/WT (wild-type) cells; assay: Sulforhodamine B (SRB) cytotoxicity assay in A2780/WT cells; format: cell-based
Procedure: (§1) Each of the testing conditions used in this study in both A2780/WT (wild-type) and A2780/DX5 cells were repeated in five to fifteen experiments that were performed on separate days. Each experiment consisted of one microtiter plate with at least eight individual assays of a given drug treatment condition on the plate. The sulforhodamine B (SRB) assay was used to assess cytotoxicity and absorbance at 570 nm (A570) in order to calculate the percentage of cell control (or percent cell survival) for the various treatment conditions in the plate wells.
(§2) Roswell Park Memorial Institute (RPMI 1640) medium, fetal bovine serum (FBS), and L-glutamine were purchased from Gibco BRL. Drugs were dissolved in sterile dimethylsulfoxide (DMSO), from American Type Culture Collection (ATCC) for stock solutions (2.5 to 5.0 mM). Subsequent dilutions were made using cell culture medium (prior to adding the drug to cells). SRB was purchased from Sigma and dissolved in 1.0 percent acetic acid. Trichloroacetic acid was purchased from VWR International.
(§3) Cells were manipulated in a Class IIA/B3 Biological Safety Cabinet (Forma Scientific) and maintained at 37°C in a humidified atmosphere containing 5% CO2 in a water-jacketed cell culture incubator (Forma Scientific). Cells were counted using a Coulter-Z1 counter (Beckman-Coulter). Following drug treatment, plates were washed using a Biomek 2000 station (Beckman) and, following exposure to SRB dye, plates were washed using an automated plate washer (Model EL404, Bio-Tek Instruments). Percentage of control was correlated to A570 values and determined using a Model EL800 plate reader (Bio-Tek Instruments).
(§4) Population doubling times for the two cell lines used in this study encompassed a total of five cell doublings corresponding to approximately 5 days for A2780/WT and A2780/DX5 cells. A2780/WT and A2780/DX5 cells were cultured in RPMI 1640 medium supplemented with 10% fetal bovine serum and 1 mM of L-glutamine. Both cell lines were maintained as monolayered cultures in T-25 or T-75 flasks and then seeded to microtiter plate wells for experiments described herein. Prior to SRB assays, cell viability was monitored by evaluation of microtiter plate wells. Dead cells detach and float while living cells remain attached to the bottom of the cell well.
(§5) The sulforhodamine B (SRB) cytotoxicity assay (see, Skehan P, et al., New colorimetric cytotoxicity assay for anticancer-drug screening. J. Natl. Cancer Inst. 82:1107-1112 (1990)) was used to determine the cytotoxic effects of BNP1350, SN-38, topotecan, 9-NH2-CPT, and 9-NO2-CPT on cell growth in vitro. Briefly, after the medium was aspirated from individual plate wells, trichloroacetic acid (100 µL of 10.0% solution) was added to each well, and the plates were incubated at 4°C for at least 1 hour. The plates were washed five-times with water using an automated microplate washer (Model EL 404, Bio-Tek Instruments), SRB solution (100 µL of 0.4 grams SRB dissolved in 100 mL 1.0 percent acetic acid) was added, and plates remained at room temperature for 15 minutes. The plates were then washed five-times using acetic acid (1.0%), air dried, and bound dye was solubilized in Tris base (150 µL, 10 mM). Plates were agitated (gently) for 5 minutes and the absorbance values of the SRB dye-protein adduct at a 570 nm wavelength (A570) were determined using an automated microtiter plate reader equipped with an A570 filter (Model EL800, BioTek Instruments). Table VII. Summary of Cytotoxicity Experiments in A2780/WT and DX5 Cells

[2] = test system: A2780/DX5 cells; assay: Sulforhodamine B (SRB) cytotoxicity assay in A2780/DX5 cells; format: cell-based; conditions: for IC50 Ratio: A2780/DX5 versus A2780/WT
Procedure: as §1, §2, §3, §4, §5

[3] = Homo sapiens, SRB assay, A2780/WT cells, read-out: A2780/ WT (IC50)
[4] = Homo sapiens, A2780, read-out: A2780/ DX5 (IC50)
[5] = Homo sapiens, SRB assay, A2780/DX5 cells, read-out: A2780/ DX5 (IC50)
[6] = SRB assay, A2780/WT cells, read-out: A2780/ WT (IC50)
[7] = SRB assay, A2780/DX5 cells, read-out: A2780/ DX5 (IC50)
[8] = Homo sapiens, A2780, read-out: A2780/ WT (IC50)

| Structure (SMILES) | IC50 [1, 3] [nM] | IC50 Ratio [2] | IC50 [2, 4] [nM] | IC50 [2, 5] [nM] | IC50 [1, 6] [nM] | IC50 [2, 7] [nM] | IC50 [1, 8] [nM] |
| --- | --- | --- | --- | --- | --- | --- | --- |
| CC[C@@]1(O)C(=O)OCc2c1cc1n(c2=O)Cc2c-1nc1ccccc1c2CC[Si](C)(C)CN1CCCC1 [Compound 32, (4S)-11-[2-(dimethyl-pyrrolidin-1-ylmethyl-silanyl)-ethyl]-4-ethyl-4-hydroxy-1,12-dihydro-4H-2-oxa-6,12a-diaza-dibenzo[b,h]fluorene-3,13-dione] | 46.4 | 6.9 | 319 |  |  |  |  |
| CC[C@@]1(O)C(=O)OCc2c1cc1n(c2=O)Cc2c-1nc1ccccc1c2CC[Si](C)(C)CCCOC(=O)c1ccccc1 [Compound 55, Benzoic acid 3-{[2-(4-ethyl-4-hydroxy-3,13-dioxo-3,4, 12, 13-tetrahydro-1H-2-oxa-6,12a-diaza-dibenzo[b,h]fluoren-11-yl)-ethyl]-dimethylsilanyl}-propyl ester] | 24 | 4.6 |  | 112 |  |  |  |
| CC[C@@]1(O)C(=O)OCc2c1cc1n(c2=O)Cc2c-1nc1ccccc1c2CC[Si](C)(C)CCCn1ccnc1 [Compound 14, (4S)-4-ethyl-4-hydroxy-11-{2-[(3-imidazol-1-yl-propyl)-dimethyl-silanyl]-ethyl}-1,12-dihydro-4H-2-oxa-6,2a-diaza-dibenzo[b,h]fluorene-3,13-dione] |  | 14.8 |  |  | 11.2 | 166 |  |
| CCC1(O)C(=O)OCc2c1cc1n(c2=O)Cc2c-1nc1ccccc1c2CC[Si](C)(C)CCC(=O)O (stereo not drawn) [Compound 47, 3-{[2-(4-Ethyl-4-hydroxy-3,13-dioxo-3 ,4, 12, 13-tetrahydro-1H-2-oxa-6, 12a-diaza-dibenzo[b,h]fluoren-11-yl)-ethyl]-dimethyl-silanyl}-propionic acid] | 200 | 3.1 |  | 629 |  |  |  |
| CC[C@@]1(O)C(=O)OCc2c1cc1n(c2=O)Cc2c-1nc1ccccc1c2CC[Si](C)(C)CCCn1cncn1 [Compound 15, (4S)-11-{2-[dimethyl-(3-[1,2,4]triazol-1-yl-pronyl)-silanyl]-ethyl}-4-ethyl-4-hydroxy-1,12-dihydro-4H-2-oxa-6,12a-diaza-dibenzo[b,h]fluorene-3,13-dione] |  | 6.9 |  |  | 9 | 62.4 |  |
| CC[C@@]1(O)C(=O)OCc2c1cc1n(c2=O)Cc2c-1nc1ccccc1c2CC[Si](C)(C)CSc1nccn1C [Compound 33, (4S)-11-{2-[dimethyl-(1-methyl-1H-imidazol-2-ylsulfanylmethyl)-silanyl]-ethyl}-4-ethyl-4-hydroxy-1,12-dihydro-4H-2-oxa-6,12a-diaza-dibenzo[b,h]fluorene-3,13-dione] |  | 6.0 | 57.8 |  |  |  | 9.7 |
| CC[C@@]1(O)C(=O)OCc2c1cc1n(c2=O)Cc2c-1nc1ccccc1c2CC[Si](C)(C)CCCOC(=O)c1ccco1 [Compound 57, Furan-2-carboxylic acid 3-{[2-(4-ethyl-4-hydroxy-3,13-dioxo-3,4, 12, 13-tetrahydro-1H-2-oxa-6,12a-diaza-dibenzo[b,h]fluoren-11-yl)-ethyl]-dimethyl-silanyl}-propyl ester] | 12.3 | 2.4 |  | 29.2 |  |  |  |
| CC[C@@]1(O)C(=O)OCc2c1cc1n(c2=O)Cc2c-1nc1ccccc1c2CC[Si](C)(C)CCCNC(=O)N(C)C [Compound 29, (4S)-3-(3-{[2-(4-ethyl-4-hydroxy-3,13-dioxo-3,4,12,13-tetrahydro-1H-2-oxa-6,12a-diaza-dibenzo[b,h]fluoren-11-yl)-ethyl]-dimethylsilanyl}-propyl)-1,1-dimethylurea] |  | 11.4 | 312 |  |  |  | 27.5 |
| CC[C@@]1(O)C(=O)OCc2c1cc1n(c2=O)Cc2c-1nc1ccccc1c2CC[Si](C)(C)CO [Compound 7, (4S)-4-ethyl-4-hydroxy-11-[2-(hydroxymethyldimethylsilanyl)-ethyl]-1,12-dihydro-4H-2-oxa-6,12a-diaza-dibenzo[b,h]fluorene-3,13-dione] |  | 4.2 | 40.3 |  |  |  | 9.6 |
